# Measured values reported in PubChem BioAssay AID180 (DTP/NCI, 2004).
# Several values for one entry are separate records, joined by “and”; a condition that tells them apart may be missing. Identical values can stand only once.
# Test system: BDF1 mice, Adenocarcinoma 755 s.c., tumor weight T/C
# Experiment: NCI In Vivo Anticancer Drug Screen. Data for tumor model Adenocarcinoma 755 (subcutaneous) in B6D2F1 (BDF1) mice
# Details: endpoint: mean tumor weight, higher = larger tumour
# How it was run: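 Tumor-bearing mice receive test compound while controls get vehicle alone. Antitumor effect is scored from survival or tumor dimensions as a T/C quotient.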
compound,measurement,setting,value
Nc1c(Br)cc2c(c1Br)Cc1cc(Br)ccc1-2,T/C,"dose: 3.75 mg/kg/injection, schedule: Q#A X022 (ip), vehicle: saline",77 % of control
same,T/C,"dose: 7.5 mg/kg/injection, schedule: Q#A X022 (ip), vehicle: saline",50 % of control
same,T/C,"dose: 15.0 mg/kg/injection, schedule: Q01DX011 (im), vehicle: saline",46 % of control
same,T/C,"dose: 15.0 mg/kg/injection, schedule: Q01DX011 (sc), vehicle: saline",58 % of control
same,T/C,"dose: 15.0 mg/kg/injection, schedule: Q#A X022 (ip), vehicle: saline",40 % of control
same,T/C,"dose: 15.5 mg/kg/injection, schedule: Q01DX011 (ip), vehicle: saline",74 % of control
same,T/C,"dose: 21.8 mg/kg/injection, schedule: Q01DX011 (ip), vehicle: saline",59 % of control and 69 % of control
same,T/C,"dose: 30.0 mg/kg/injection, schedule: Q01DX011 (im), vehicle: saline",48 % of control
same,T/C,"dose: 30.0 mg/kg/injection, schedule: Q01DX011 (sc), vehicle: saline",52 % of control
same,T/C,"dose: 30.0 mg/kg/injection, schedule: Q#A X022 (ip), vehicle: saline",40 % of control
same,T/C,"dose: 31.2 mg/kg/injection, schedule: Q01DX011 (ip), vehicle: saline",75 % of control
same,T/C,"dose: 43.7 mg/kg/injection, schedule: Q01DX011 (ip), vehicle: saline",18 % of control and 36 % of control
same,T/C,"dose: 45.0 mg/kg/injection, schedule: Q03DX004 (ip), vehicle: saline",67 % of control
same,T/C,"dose: 60.0 mg/kg/injection, schedule: Q01DX011 (im), vehicle: saline",40 % of control
same,T/C,"dose: 60.0 mg/kg/injection, schedule: Q01DX011 (ip), vehicle: saline",24 % of control
same,T/C,"dose: 60.0 mg/kg/injection, schedule: Q01DX011 (sc), vehicle: saline",41 % of control
same,T/C,"dose: 60.0 mg/kg/injection, schedule: Q#A X022 (ip), vehicle: saline",28 % of control
same,T/C,"dose: 62.5 mg/kg/injection, schedule: Q01DX011 (ip), vehicle: saline",63 % of control
same,T/C,"dose: 87.5 mg/kg/injection, schedule: Q01DX011 (ip), vehicle: saline",33 % of control and 35 % of control
same,T/C,"dose: 90.0 mg/kg/injection, schedule: Q03DX004 (ip), vehicle: saline",66 % of control
same,T/C,"dose: 100.0 mg/kg/injection, schedule: Q01DX001 (ip), vehicle: saline",80 % of control and 87 % of control
same,T/C,"dose: 100.0 mg/kg/injection, schedule: Q07DX002 (ip), vehicle: saline",78 % of control
same,T/C,"dose: 120.0 mg/kg/injection, schedule: Q01DX001 (ip), vehicle: saline",56 % of control
same,T/C,"dose: 120.0 mg/kg/injection, schedule: Q01DX011 (im), vehicle: saline",45 % of control
same,T/C,"dose: 120.0 mg/kg/injection, schedule: Q01DX011 (ip), vehicle: saline",17 % of control
same,T/C,"dose: 120.0 mg/kg/injection, schedule: Q01DX011 (oral), vehicle: saline",26 % of control
same,T/C,"dose: 120.0 mg/kg/injection, schedule: Q01DX011 (sc), vehicle: saline",46 % of control
same,T/C,"dose: 120.0 mg/kg/injection, schedule: Q#A X022 (ip), vehicle: saline",34 % of control
same,T/C,"dose: 125.0 mg/kg/injection, schedule: Q01DX011 (ip), vehicle: saline",36 % of control
same,T/C,"dose: 125.0 mg/kg/injection, schedule: Q01DX011 (oral), vehicle: saline",74 % of control
same,T/C,"dose: 175.0 mg/kg/injection, schedule: Q01DX011 (ip), vehicle: other",33 % of control
same,T/C,"dose: 175.0 mg/kg/injection, schedule: Q01DX011 (ip), vehicle: saline",27 % of control and 33 % of control
same,T/C,"dose: 180.0 mg/kg/injection, schedule: Q03DX004 (ip), vehicle: saline",58 % of control
same,T/C,"dose: 200.0 mg/kg/injection, schedule: Q01DX001 (ip), vehicle: saline",74 % of control and 75 % of control
same,T/C,"dose: 200.0 mg/kg/injection, schedule: Q07DX002 (ip), vehicle: saline",71 % of control
same,T/C,"dose: 240.0 mg/kg/injection, schedule: Q01DX001 (ip), vehicle: saline",44 % of control
same,T/C,"dose: 240.0 mg/kg/injection, schedule: Q01DX011 (ip), vehicle: saline",16 % of control
same,T/C,"dose: 240.0 mg/kg/injection, schedule: Q01DX011 (oral), vehicle: saline",23 % of control
same,T/C,"dose: 250.0 mg/kg/injection, schedule: Q01DX011 (ip), vehicle: saline",52 % of control
same,T/C,"dose: 250.0 mg/kg/injection, schedule: Q01DX011 (oral), vehicle: saline",64 % of control
same,T/C,"dose: 350.0 mg/kg/injection, schedule: Q01DX011 (ip), vehicle: other",16 % of control
same,T/C,"dose: 360.0 mg/kg/injection, schedule: Q03DX004 (ip), vehicle: saline",54 % of control
same,T/C,"dose: 400.0 mg/kg/injection, schedule: Q01DX001 (ip), vehicle: saline",54 % of control and 65 % of control
same,T/C,"dose: 400.0 mg/kg/injection, schedule: Q07DX002 (ip), vehicle: saline",51 % of control
same,T/C,"dose: 480.0 mg/kg/injection, schedule: Q01DX001 (ip), vehicle: saline",26 % of control
same,T/C,"dose: 480.0 mg/kg/injection, schedule: Q01DX011 (im), vehicle: saline",33 % of control
same,T/C,"dose: 480.0 mg/kg/injection, schedule: Q01DX011 (ip), vehicle: saline",16 % of control
same,T/C,"dose: 480.0 mg/kg/injection, schedule: Q01DX011 (oral), vehicle: saline",24 % of control
same,T/C,"dose: 480.0 mg/kg/injection, schedule: Q01DX011 (sc), vehicle: saline",30 % of control
same,T/C,"dose: 500.0 mg/kg/injection, schedule: Q01DX011 (ip), vehicle: saline",58 % of control
same,T/C,"dose: 500.0 mg/kg/injection, schedule: Q01DX011 (oral), vehicle: saline",57 % of control
same,T/C,"dose: 700.0 mg/kg/injection, schedule: Q01DX011 (ip), vehicle: other",34 % of control
same,T/C,"dose: 720.0 mg/kg/injection, schedule: Q03DX004 (ip), vehicle: saline",24 % of control
same,T/C,"dose: 800.0 mg/kg/injection, schedule: Q01DX001 (ip), vehicle: saline",60 % of control and 80 % of control
same,T/C,"dose: 800.0 mg/kg/injection, schedule: Q07DX002 (ip), vehicle: saline",51 % of control
same,T/C,"dose: 960.0 mg/kg/injection, schedule: Q01DX001 (ip), vehicle: saline",31 % of control
same,T/C,"dose: 960.0 mg/kg/injection, schedule: Q01DX011 (im), vehicle: saline",29 % of control
same,T/C,"dose: 960.0 mg/kg/injection, schedule: Q01DX011 (oral), vehicle: saline",25 % of control
same,T/C,"dose: 960.0 mg/kg/injection, schedule: Q01DX011 (sc), vehicle: saline",25 % of control
same,T/C,"dose: 1000.0 mg/kg/injection, schedule: Q01DX011 (ip), vehicle: saline",47 % of control
same,T/C,"dose: 1000.0 mg/kg/injection, schedule: Q01DX011 (oral), vehicle: saline",43 % of control
same,T/C,"dose: 1440.0 mg/kg/injection, schedule: Q03DX004 (ip), vehicle: saline",29 % of control
same,T/C,"dose: 2000.0 mg/kg/injection, schedule: Q01DX011 (ip), vehicle: saline",40 % of control
same,T/C,"dose: 2000.0 mg/kg/injection, schedule: Q01DX011 (oral), vehicle: saline",36 % of control
same,T/C,"dose: 3000.0 mg/kg/injection, schedule: Q01DX011 (oral), vehicle: saline",56 % of control
CSc1ncc(Br)c(NCc2ccccc2Cl)n1,T/C,"dose: 25.0 mg/kg/injection, schedule: Q01DX011 (ip), vehicle: methylcellulose (MC)",65 % of control
same,T/C,"dose: 31.0 mg/kg/injection, schedule: Q01DX011 (ip), vehicle: methylcellulose (MC)",106 % of control
same,T/C,"dose: 62.0 mg/kg/injection, schedule: Q01DX011 (ip), vehicle: methylcellulose (MC)",103 % of control
same,T/C,"dose: 125.0 mg/kg/injection, schedule: Q01DX011 (ip), vehicle: methylcellulose (MC)",85 % of control
same,T/C,"dose: 250.0 mg/kg/injection, schedule: Q01DX011 (ip), vehicle: methylcellulose (MC)",80 % of control
Nc1nc(S(N)(=O)=O)nc2nc[nH]c12,T/C,"dose: 25.0 mg/kg/injection, schedule: Q01DX011 (ip), vehicle: carboxymethylcellulose (CMC)",57 % of control
same,T/C,"dose: 75.0 mg/kg/injection, schedule: Q01DX011 (ip), vehicle: carboxymethylcellulose (CMC)",82 % of control
same,T/C,"dose: 225.0 mg/kg/injection, schedule: Q01DX011 (ip), vehicle: carboxymethylcellulose (CMC)",72 % of control
CCCCCCSc1ncnc2nc[nH]c12,T/C,"dose: 31.0 mg/kg/injection, schedule: Q01DX011 (ip), vehicle: other",93 % of control
same,T/C,"dose: 62.0 mg/kg/injection, schedule: Q01DX011 (ip), vehicle: other",35 % of control
same,T/C,"dose: 125.0 mg/kg/injection, schedule: Q01DX011 (ip), vehicle: other",2 % of control
same,T/C,"dose: 250.0 mg/kg/injection, schedule: Q01DX011 (ip), vehicle: other",1 % of control
same,T/C,"dose: 300.0 mg/kg/injection, schedule: Q01DX010 (ip), vehicle: other",5 % of control
same,T/C,"dose: 400.0 mg/kg/injection, schedule: Q01DX010 (ip), vehicle: other",3 % of control
